Measured values published in PMC4129108, “The natural triterpene 3β,6β,16β-trihydroxy-lup-20(29)-ene obtained from the flowers of Combretum leprosum induces apoptosis in MCF-7 breast cancer cells” (BMC Complementary and Alternative Medicine, 2014).
Values after ≈ are worked out from the molar mass of the structure shown.

How the values were obtained:
[1] = test system: MRC5 (lung normal fibroblast); assay: XTT cell viability assay, MRC5 normal fibroblasts; assay type: cell-based; conditions: Homo sapiens
Experimental: (§1) The human cell lines MCF-7 (breast adenocarcinoma), HepG2 (hepatoma), T24 (bladder cancer), CACO-2 (colorectal adenocarcinoma) and MRC5 (lung normal fibroblast) were obtained from the Rio de Janeiro Cell Bank (Rio de Janeiro, RJ, Brazil). The HCT116 cell (colorectal carcinoma), and HT29 cell (colorectal adenocarcinoma) were kindly provided by Dr. Annette K. Larsen (Institut National de la Santé et de la Recherche Médicale - INSERM, Paris, França). All cell lines except MCF-7 were grown in DMEM supplemented with 10% or 20% (for CACO-2) FBS, 100 units.mL^-1 penicillin and 100 μg.mL^-1 streptomycin at 37°C in a humidified atmosphere of 5% CO2. MCF-7 cells were maintained in RPMI-1640 supplemented with 20% FBS at the same conditions described above.
(§2) The cytotoxic potential of the TTHL was evaluated by the XTT assay in human tumor cell lines as well as in MRC5 normal fibroblasts. Cells (1 × 10^4 cells) were seeded on 96-well plates in growth medium and incubated overnight. Afterwards, TTHL (0.5, 1.0, 2.5, 5.0, and 10 μg/mL) was added to each well and incubated for 24, 48, 72, and 120 h. Mitoxantrone, a cytostatic anthracenedione that intercalates in DNA and increases the incidence of double-strand breaks by stabilizing the cleavable complex of topoisomerase II and DNA, was used as positive control. At the end of each treatment, cell viability was assessed according to the manufacturer’s instructions. Briefly, after discarding the medium, 1 mL of XTT labeling mixture was added to the cells and incubated for 2 h at 37°C. Absorbance was measured with a SpectraMax reader (Bio-Rad, USA) at a test wavelength of 492 nm (A492) and a reference wavelength of 690 nm (A690). The final result corresponds to A492-A690. The absorbance of negative control cells was set as 100% viability, and the values for treated cells were calculated as a percentage of the control.
(§3) The IC20, IC50, and IC80 values and their 95% confidence intervals (CI 95%) were obtained by nonlinear regression using GraphPad Prism v5 program (Intuitive Software for Science, San Diego, CA, USA). Selective index (SI) was calculated by IC50 in MRC5 cells/IC50 in tumoral cells. All experiments were independently repeated at least three times, with triplicate samples for each treatment. Results are expressed as means ± standard deviation (SD). Data were analyzed by one-way analysis of variance (ANOVA), and means were compared using Tukey test, with P ≤ 0.05 considered as statistically significant.

T24 (bladder cancer) = assay: XTT cell viability assay, T24; assay type: cell-based, human; conditions: for IC50: Homo sapiens, XTT
Experimental: as §1, §2, §3

[2] = test system: HT29 cell (colorectal adenocarcinoma); assay: XTT cell viability assay, HT29; assay type: cell-based, human; conditions: for IC50: Homo sapiens, HT-29, XTT
Experimental: as §1, §2, §3

[3] = test system: CACO-2 (colorectal adenocarcinoma); assay: XTT cell viability assay, CACO-2; assay type: cell-based, human; conditions: for IC50: Homo sapiens, XTT
Experimental: as §1, §2, §3

MCF-7 cells [4] = assay: Cell cycle distribution by flow cytometric analysis (PI); assay type: cell-based, human; conditions: MCF-7, 24 h
Experimental: (§4) Cells (2 × 10^5 cells/mL) were seeded on 6-well tissue culture plates, and grown for 1 day up to 70–80% confluence before treatment with the test substance. The TTHL was added to medium with FBS to obtain the different concentrations, and cells were treated at 37°C for 24 h in humidified atmosphere containing 5% CO2.
Cell cycle distribution determination analysis was performed as previously described. After treatment, cells were trypsinized, centrifuged and resuspended in ice-cold 70% ethanol, and left for 24 h at 4°C. Ethanol-fixed cells were centrifuged, washed with PBS and resuspended in buffer containing 0.2 mg/mL RNAse, 50 μg/mL PI and 0.1% Triton X-100, and incubated for 30 min at room temperature. Samples were analyzed on a FACS Calibur flow cytometer (Becton-Dikinson, San Fransisco, CA) using the CellQuest software. A total of 10,000 events were measured per sample. The data were analyzed to determine the percentage of cells at each phase of the cell cycle (sub-G1, G1, S and G2/M).

MCF-7 cells [5] = assay: Apoptosis by flow cytometry (Annexin V-PE/7-AAD); assay type: cell-based, human; conditions: MCF-7, 24 h
Experimental: as §4
Annexin V-PE was used in conjunction with a vital dye, 7-AAD, to distinguish apoptotic (Annexin V-PE positive, 7-AAD negative) from necrotic (Annexin V-PE positive, 7-AAD positive) cells. After treatment, cells were trypsinized, collected and resuspended in 40 μL of binding buffer with 2 μL Annexin V-PE. Cells were incubated for 15 min in the dark at room temperature. After incubation, 160 μL of binding buffer and 2 μL of 7-AAD were added. Cells were incubated for 5 min and additional 200 μL of binding buffer were added. Before analysis, cells were filtered through a cell strainer cap fitted to a polystyrene round bottom flow cytometric tube. Data were collected and analyzed by a FACS Calibur flow cytometer with CellQuest software, in a total of 10,000 events per sample; fluorescence was measured and the percentage of viable, early apoptotic, late apoptotic and necrotic cells was determined.

[6] = test system: intracellular ROS in MCF-7 cells; assay: ROS detection by flow cytometry (H2DCFDA); assay type: cell-based, human
Experimental: as §4
Levels of intracellular ROS were estimated following treatment with TTHL using 2′,7′-dichlorofluorescein diacetate (H2DCFDA, Sigma) as a fluorescent probe. Detection of oxidative stress was done by incubating the cells with 20 μM of H2DCFDA for 20 min at 37°C. Cells were then detached by trypsinization and washed twice with PBS. After filtration through cell strainer cap, cells were analyzed using a FACS Calibur flow cytometer with CellQuest software in accordance with Bass et al.. A total of 10,000 events were measured per sample. DCF fluorescence intensity was shown in arbitrary units.

C=C(C)[C@@H]1CC[C@@]2(C)[C@H]1[C@H]1CC[C@@H]3[C@@]4(C)CC[C@H](O)C(C)(C)[C@@H]4[C@H](O)C[C@@]3(C)[C@]1(C)C[C@@H]2O [TTHL, 3β,6β,16β-trihydroxy-lup-20(29)-ene]
IC50 ([1]; MRC5, 24 h treatment): 8.4 ± 0.28 µg/mL (≈ 18.3 µM) | IC50 ([1]; MRC5, 48 h treatment): 7.6 ± 0.14 µg/mL (≈ 16.6 µM) | IC50 ([1]; MRC5, 72 h treatment): 7.4 ± 0.15 µg/mL (≈ 16.1 µM) | IC50 ([1]; MRC5, 120 h treatment): 6.84 ± 0.1 µg/mL (≈ 14.9 µM) | IC50 (T24 (bladder cancer); T24, 24 h treatment): 5.55 ± 0.64 µg/mL (≈ 12.1 µM) | IC50 (T24 (bladder cancer); T24, 48 h treatment): 5.2 ± 0.42 µg/mL (≈ 11.3 µM) | IC50 (T24 (bladder cancer); T24, 72 h treatment): 1.09 ± 0.14 µg/mL (≈ 2.38 µM) | IC50 (T24 (bladder cancer); T24, 120 h treatment): 0.39 ± 0.1 µg/mL (≈ 0.85 µM) | Selectivity index (SI) (T24 (bladder cancer); IC50 in MRC5 cells/IC50 in T24, 24 h): 1.5 X | Selectivity index (SI) (T24 (bladder cancer); IC50 in MRC5 cells/IC50 in T24, 48 h): 1.5 X | Selectivity index (SI) (T24 (bladder cancer); IC50 in MRC5 cells/IC50 in T24, 72 h): 7 X | Selectivity index (SI) (T24 (bladder cancer); IC50 in MRC5 cells/IC50 in T24, 120 h): 17 X | IC50 ([2]; HT29, 24 h treatment): 8 ± 0.14 µg/mL (≈ 17.4 µM) | IC50 ([2]; HT29, 48 h treatment): 7 ± 0.42 µg/mL (≈ 15.3 µM) | IC50 ([2]; HT29, 72 h treatment): 6.15 ± 0.21 µg/mL (≈ 13.4 µM) | IC50 ([2]; HT29, 120 h treatment): 5.3 ± 0.28 µg/mL (≈ 11.6 µM) | Selectivity index (SI) ([2]; IC50 in MRC5 cells/IC50 in HT29, 24 h): 1 X | Selectivity index (SI) ([2]; IC50 in MRC5 cells/IC50 in HT29, 48 h): 1 X | Selectivity index (SI) ([2]; IC50 in MRC5 cells/IC50 in HT29, 72 h): 1 X | Selectivity index (SI) ([2]; IC50 in MRC5 cells/IC50 in HT29, 120 h): 1 X | IC50 ([3]; CACO-2, 24 h treatment): 8.55 ± 0.35 µg/mL (≈ 18.6 µM) | IC50 ([3]; CACO-2, 48 h treatment): 7.9 ± 0.28 µg/mL (≈ 17.2 µM) | IC50 ([3]; CACO-2, 72 h treatment): 6.35 ± 0.35 µg/mL (≈ 13.8 µM) | IC50 ([3]; CACO-2, 120 h treatment): 5 ± 0.19 µg/mL (≈ 10.9 µM) | Selectivity index (SI) ([3]; IC50 in MRC5 cells/IC50 in CACO-2, 24 h): MR (MR: more resistant in tumoral cells) | Selectivity index (SI) ([3]; IC50 in MRC5 cells/IC50 in CACO-2, 48 h): MR (MR: more resistant in tumoral cells) | Selectivity index (SI) ([3]; IC50 in MRC5 cells/IC50 in CACO-2, 72 h): 1 X | Selectivity index (SI) ([3]; IC50 in MRC5 cells/IC50 in CACO-2, 120 h): 1 X | change in cell cycle progression (MCF-7 cells [4]; TTHL at IC20, IC50, IC80): no significant change in cell cycle progression | sub-G1 population (MCF-7 cells [4]; seen at IC50 and IC80, concentration-dependent): significant increase in the sub-G1 population | apoptosis induced (% of MCF-7 cells) (MCF-7 cells [5]; TTHL at IC50): 14% | percentage of necrotic cells (labeled with 7-AAD) (MCF-7 cells [5]; TTHL at IC50): less than 5% | cells in early apoptosis (labeled with annexin V-PE) (MCF-7 cells [5]; TTHL at IC80): approximately 55% | cells in late apoptosis (labeled with both annexin V-PE and 7-AAD) (MCF-7 cells [5]; TTHL at IC80): 15% | percentage of necrotic cells (labeled with 7-AAD) (MCF-7 cells [5]; TTHL at IC80): less than 5% | increase in intracellular ROS production ([6]; MCF-7, 24 h treatment at IC50): 49% | increase in intracellular ROS production ([6]; MCF-7, 24 h treatment at IC80): 64%
